Experimental data from patent US10654818B2, “Furane derivatives as inhibitors of ATAD2” (BAYER PHARMA AKTIENGESELLSCHAFT, priority 2015, dated 2020).

Target: T1, recombinant, N-terminally GST-tagged ATAD2 bromodomain amino acids 981-1108 (Homo sapiens, UniProt Q6PL18)
T1 construct: ATAD2 bromodomain amino acids 981-1108; made in house; host or cells: E. coli
T1 sequence (Q6PL18 981-1108): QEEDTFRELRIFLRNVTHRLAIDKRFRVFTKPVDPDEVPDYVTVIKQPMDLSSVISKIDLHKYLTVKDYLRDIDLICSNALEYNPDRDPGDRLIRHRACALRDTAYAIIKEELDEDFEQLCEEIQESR
Assay: TR-FRET assay: disruption of the interaction between ATAD2 and acetylated Histone H4 (Ac-H4) peptide
Type: binding
Conditions: inhibition of ATAD2/Ac-H4 complex formation; 10 nM ATAD2, 50 nM Ac-H4 peptide
From the text: The ability of the compounds described in the present invention to disrupt the interaction between ATAD2 and acetylated Histone H4 (Ac-H4) was used as quantitative measure of their ATAD2-binding affinities.
To this end a TR-FRET assay which detects the binding of an Ac-H4-derived synthetic peptide (purchased from e.g. Biosyntan (Berlin, Germany)) of sequence HSGRGKGGGGKGLGK(Ac)GGAKRHRK-Biotin to recombinant, N-terminally GST-tagged ATAD2 bromodomain amino acids 981-1108. The protein was produced in-house via E. coli expression followed by GSH-Sepharose affinity- and Superdex S200-size exclusion chromatography purification.
Typically, 11 different concentrations of each compound (0.1 nM, 0.33 nM, 1.1 nM, 3.8 nM, 13 nM, 44 nM, 0.15 μM, 0.51 μM, 1.7 μM, 5.9 μM and 20 μM) were tested in duplicate within the same microtiter plate. To this end, 100-fold concentrated compound solutions (in DMSO) were previously prepared with a Precision Pippeting System (BioTek) by serial dilution (1:3.4) of 2 mM stocks in clear, low-volume 384-well microtiter source plates (Greiner Bio-One). Subsequently, 50 nl of compounds were transferred into black, low-volume test plates from the same supplier using a Hummingbird capillary based liquid handling instrument (Digilab). Tests were started by the addition of 2 μl of 2.5-fold concentrated ATAD2 solution (25 nM=10 nM final concentration in the 5 μl assay volume) in aqueous assay buffer [50 mM HEPES pH 7.5, 50 mM potassium fluoride (KF), 100 mM sodium chloride (NaCl), 0.25 mM CHAPS, 0.05% bovine serum albumine (BSA) and 1 mM dithiothreitol (DTT)] to the compounds in the test plate with a Multidrop dispenser (Thermo-Fisher). Test plates were then incubated 10′ at 22° C., in order to allow pre-equilibration of putative compound-ATAD2 complexes. Subsequently, 3 μl of a 1.67-fold concentrated solution containing Ac-H4 peptide (83.5 nM=50 nM final concentration) and TR-FRET detection reagents [16.7 nM Anti-GST-XL665 (Cisbio), =10 nM final concentration and 4.17 nM Lance EU W-1024 Streptavidin Europium Chelate (Perkin-Elmer)=2.5 nM final concentration were dispensed into the plates.
The mixture was further incubated in the dark for 1 hour at 22° C. Finally the inhibition of the formation of ATAD2/Ac-H4 complexes was assessed by measurement of the resonance energy transfer from the Streptavidin-Eu-Chelate to the anti-GST-XL665 antibody present in the reaction. To this end, the fluorescence emissions at 622 nm and 665 nm after excitation at 337 nm were measured in a TR-FRET reader, e.g. a Rubystar or Pherastar (both from BMG Lab Technologies) or a Viewlux (Perkin-Elmer) and the ratio of the emissions at 665 nm and at 622 nm was taken as indicator for the amount of ATAD2/Ac-H4 complexes in equilibrium.
The data were normalized using two sets of control wells (16 each). The first accounted for 100% ATAD2/Ac-H4 binding (0% inhibition), and contained all reaction components but DMSO instead of inhibitors. The second represented 0% ATAD2/Ac-H4 binding (100% inhibition), and included all assay components except ATAD2. IC50 values were calculated by fitting the normalized inhibition data to a 4-parameter logistic equation using either Screener software (Genedata) or a Bayer-proprietary analysis software.

IC50 [nM]	SMILES
109	Cc1ccc([C@@H](C)NCc2ccc(-c3ccc(Cl)c(C(=O)N[C@@H](CNC4CCNC(C)(C)C4)Cc4ccc(C#N)cc4)c3)o2)cc1 (mixture of isomers) [Example 68]
138	Cc1ccc([C@@H](C)NCc2ccc(-c3ccc(Cl)c(C(=O)N[C@@H](CN[C@H]4CC[C@@H](N)CC4)Cc4ccc(C#N)cc4)c3)o2)cc1 (single isomer, unassigned) [Example 72]
640	Cc1ccc(C(C)NCc2ccc(-c3ccc(Cl)c(C(=O)N[C@@H](Cc4ccc(C#N)cc4)c4ncc[nH]4)c3)o2)cc1 (stereo in doubt) [Example 19, 2-chloro-N-[2-(4-cyanophenyl)-1-(1H-imidazol-2-yl)ethyl]-5-[5-({[(1S)-1-(4-methylphenyl)ethyl]amino}methyl)-2-furyl]benzamide]
441	Cc1ccc([C@@H](C)NCc2ccc(-c3ccc(Cl)c(C(=O)N[C@H]4CNCC[C@H]4c4ccc(C#N)cc4)c3)o2)cc1 (stereo in doubt) [Example 76, Cis-chloro-N-[4-(4-cyanophenyl)piperidin-3-yl]-5-[5-({[(1R)-1-(4-methylphenyl)-ethyl]amino}methyl)-2-furyl]benzamide]
740	Cc1ccc([C@@H](C)NCc2ccc(-c3ccc(Cl)c(C(=O)N[C@@H](CC(=O)N(C)C)Cc4ccc(C#N)cc4)c3)o2)cc1 [Example 1, 2-Chloro-N-[(2R)-1-(4-cyanophenyl)-4-(dimethylamino)-4-oxobutan-2-yl]-5-[5-({[(1R)-1-(4-methylphenyl)ethyl]amino}methyl)furan-2-yl]benzamide]
949	Cc1ccc([C@@H](C)NCc2ccc(-c3ccc(Cl)c(C(=O)N[C@H](Cc4ccc(C#N)cc4)C(N)=O)c3)o2)cc1 [Example 2, Nα-{2-chloro-5-[5-({[(1R)-1-(4-methylphenyl)ethyl]amino}methyl)-2-furyl]benzoyl}-4-cyano-D-phenylalaninamide]
927	Cc1ccc([C@@H](C)NCc2ccc(-c3ccc(Cl)c(C(=O)N[C@@H](CC(N)=O)Cc4ccc(C#N)cc4)c3)o2)cc1 [Example 3, N-[(2R)-4-amino-1-(4-cyanophenyl)-4-oxobutan-2-yl]-2-chloro-5-[5-({[(1R)-1-(4-methylphenyl)ethyl]amino}methyl)furan-2-yl]benzamide]
1890	CNC(=O)[C@@H](Cc1ccc(C#N)cc1)NC(=O)c1cc(-c2ccc(CN[C@H](C)c3ccc(C)cc3)o2)ccc1Cl [Example 5, Nα-{2-chloro-5-[5-({[(1R)-1-(4-methylphenyl)ethyl]amino}methyl)furan-2-yl]benzoyl}-4-cyano-N-methyl-D-phenylalaninamide]
656	Cc1ccc([C@@H](C)NCc2ccc(-c3ccc(Cl)c(C(=O)N[C@@H](CC(=O)NC(C)C)Cc4ccc(C#N)cc4)c3)o2)cc1 [Example 6, 2-chloro-N-[(2R)-1-(4-cyanophenyl)-4-(isopropylamino)-4-oxobutan-2-yl]-5-[5-({[(1R)-1-(4-methylphenyl)ethyl]amino}methyl)-2-furyl]benzamide]
832	Cc1ccc([C@@H](C)NCc2ccc(-c3ccc(Cl)c(C(=O)N[C@@H](CC(=O)NCCO)Cc4ccc(C#N)cc4)c3)o2)cc1 [Example 7, 2-chloro-N-{(2R)-1-(4-cyanophenyl)-4-[(2-hydroxyethyl)amino]-4-oxobutan-2-yl}-5-[5-({[(1R)-1-(4-methylphenyl)ethyl]amino}methyl)-2-furyl]benzamide]
898	Cc1ccc([C@@H](C)NCc2ccc(-c3ccc(Cl)c(C(=O)N[C@@H](CC(=O)NCCCO)Cc4ccc(C#N)cc4)c3)o2)cc1 [Example 8, 2-chloro-N-{(2R)-1-(4-cyanophenyl)-4-[(3-hydroxypropyl)amino]-4-oxobutan-2-yl}-5-[5-({[(1R)-1-(4-methylphenyl)ethyl]amino}methyl)-2-furyl]benzamide]
749	Cc1ccc([C@@H](C)NCc2ccc(-c3ccc(Cl)c(C(=O)N[C@@H](CC(=O)N4CCCC4)Cc4ccc(C#N)cc4)c3)o2)cc1 [Example 9, 2-chloro-N-[(2R)-1-(4-cyanophenyl)-4-oxo-4-(pyrrolidin-1-yl)butan-2-yl]-5-[5-({[(1R)-1-(4-methylphenyl)ethyl]amino}methyl)-2-furyl]benzamide]
674	Cc1ccc([C@@H](C)NCc2ccc(-c3ccc(Cl)c(C(=O)N[C@@H](CC(=O)N4CCOCC4)Cc4ccc(C#N)cc4)c3)o2)cc1 [Example 10, 2-chloro-N-[(2R)-1-(4-cyanophenyl)-4-(morpholin-4-yl)-4-oxobutan-2-yl]-5-[5-({[(1R)-1-(4-methylphenyl)ethyl]amino}methyl)-2-furyl]benzamide]
822	Cc1ccc([C@@H](C)NCc2ccc(-c3ccc(Cl)c(C(=O)N[C@@H](CC(=O)N4CCN(C)CC4)Cc4ccc(C#N)cc4)c3)o2)cc1 [Example 11, 2-chloro-N-[(2R)-1-(4-cyanophenyl)-4-(4-methylpiperazin-1-yl)-4-oxobutan-2-yl]-5-[5-({[(lR)-1-(4-methylphenyl)ethyl]amino}methyl)-2-furyl]benzamide]
668	Cc1ccc([C@@H](C)NCc2ccc(-c3ccc(Cl)c(C(=O)N[C@H](Cc4ccc(C#N)cc4)C(C)(C)O)c3)o2)cc1 [Example 12, 2-chloro-N-[(2R)-1-(4-cyanophenyl)-3-hydroxy-3-methylbutan-2-yl]-5-[5-({[(1R)-1-(4-methylphenyl)ethyl]amino}methyl)-2-furyl]benzamide]
386	Cc1ccc([C@@H](C)NCc2ccc(-c3ccc(Cl)c(C(=O)N[C@@H](CCO)Cc4ccc(C#N)cc4)c3)o2)cc1 [Example 13, 2-chloro-N-[(2R)-1-(4-cyanophenyl)-4-hydroxybutan-2-yl]-5-[5-({[(1R)-1-(4-methylphenyl)ethyl]amino}methyl)-2-furyl]benzamide]
891	COC[C@@H](Cc1ccc(C#N)cc1)NC(=O)c1cc(-c2ccc(CN[C@H](C)c3ccc(C)cc3)o2)ccc1Cl [Example 14, 2-chloro-N-[(2R)-1-(4-cyanophenyl)-3-methoxypropan-2-yl]-5-[5-({[(1R)-1-(4-methylphenyl)ethyl]amino}methyl)-2-furyl]benzamide]
812	COC(=O)[C@@H](Cc1ccc(C#N)cc1)NC(=O)c1cc(-c2ccc(CN[C@H](C)c3ccc(C)cc3)o2)ccc1Cl [Example 15, methyl N-{2-chloro-5-[5-({[(1R)-1-(4-methylphenyl)ethyl]amino}methyl)-2-furyl]benzoyl}-4-cyano-D-phenylalaninate]
570	Cc1ccc([C@@H](C)NCc2ccc(-c3ccc(Cl)c(C(=O)N[C@H](Cc4ccc(C#N)cc4)[C@@H](C)O)c3)o2)cc1 [Example 16, 2-chloro-N-[(2R,3R)-1-(4-cyanophenyl)-3-hydroxybutan-2-yl]-5-[5-({[(1R)-1-(4-methylphenyl)ethyl]amino}methyl)-2-furyl]benzamide]
341	Cc1ccc([C@@H](C)NCc2ccc(-c3ccc(Cl)c(C(=O)N[C@H](Cc4ccc(C#N)cc4)[C@H](C)O)c3)o2)cc1 [Example 17, 2-chloro-N-[(2R,3S)-1-(4-cyanophenyl)-3-hydroxybutan-2-yl]-5-[5-({[(1R)-1-(4-methylphenyl)ethyl]amino}methyl)-2-furyl]benzamide]
1130	Cc1ccc([C@@H](C)NCc2ccc(-c3ccc(Cl)c(C(=O)N[C@@H](CO)Cc4ccc(I)cc4)c3)o2)cc1 [Example 18, 2-chloro-N-[(2R)-1-hydroxy-3-(4-iodophenyl)propan-2-yl]-5-[5-({[(1R)-1-(4-methylphenyl)ethyl]amino}methyl)-2-furyl]benzamide]
